Among the data in US4906659A, “Antibiotic tan-749, its derivatives, production and use thereof” (Takeda Chemical Industries, Ltd., priority 1985, dated 1990) are MIC, LD50 and ED50 values, retold here.

Values after ≈ are worked out from the molar mass of the structure shown.

One data set has as its system Pseudomonas aeruginosa P9. As to the kind of experiment: Antibacterial spectrum, minimal inhibitory concentration, agar dilution (Table E). It is filed as cell-based. The note with it: dihydrochloride, medium B--TSA (10% horse serum/TSA), inoculum a loopful of 10^8 CFU/ml. The text has this: (§1) Tables D and E show the antibacterial spectra of TAN-749A, B, C and D (dihydrochlorides) against various microorganisms.
(§2) (Note 1) Determined by the agar dilution method. Inoculum size was a
(§3) loopful of 10^8 CFU/ml.
(§4) (Note 2) TSA (Tripticase Soy Agar; Baltimore Biological Laboratories,
(§5) USA), B--TSA; 10% horse serum/TSA
In turn, `C/C=C\C=C\C(=O)NC(C)C(O)CC(N)CC(=O)NCCC(=N)N` (stereo not shown) [II] gave a minimal inhibitory concentration (MIC) of 50 µg/mL (≈ 147 µM).

For the compound `C/C=C/C=C/C(=O)NC(C)C(O)CC(N)CC(=O)NCCC(=N)N` (stereo not shown) [IV], the minimal inhibitory concentration (MIC) was found to be 100 µg/mL (≈ 295 µM).

The next data set has as its system Streptococcus pyogenes E-14. The description is as above. The class given is cell-based. The settings on record: E14, dihydrochloride, medium B--TSA (10% horse serum/TSA), inoculum a loopful of 10^8 CFU/ml.
From the text: as §1, §2, §3, §4, §5
Regarding `C/C=C\C=C\C(=O)NC(C)C(O)CC(N)CC(=O)NCCC(=N)N` (stereo not shown) [II], it took 6.25 µg/mL (≈ 18.4 µM) to inhibit growth (MIC).

Consider `C/C=C/C=C/C(=O)NC(C)C(O)CC(N)CC(=O)NCCC(=N)N` (stereo not shown) [IV], for which the MIC came out at 25 µg/mL (≈ 73.7 µM).

The subject of the next data set is Escherichia coli T7. Described as above. The settings on record: dihydrochloride, medium TSA, inoculum a loopful of 10^8 CFU/ml. The class given is cell-based.
From the text: as §1, §2, §3, §4, §5
For `C/C=C\C=C\C(=O)NC(C)C(O)CC(N)CC(=O)NCCC(=N)N` (stereo not shown) [II], 12.5 µg/mL (≈ 36.8 µM) was the least that counted as inhibitory (MIC).

For the compound `C/C=C/C=C/C(=O)NC(C)C(O)CC(N)CC(=O)NCCC(=N)N` (stereo not shown) [IV], the MIC is 50 µg/mL (≈ 147 µM).

A further data set deals with Staphylococcus aureus 308A-1. The data set is described as above. The class given is cell-based. The note with it: 308A1, dihydrochloride, medium TSA, inoculum a loopful of 10^8 CFU/ml.
From the text: as §1, §2, §3, §4, §5
Compound `C/C=C\C=C\C(=O)NC(C)C(O)CC(N)CC(=O)NCCC(=N)N` (stereo not shown) [II] gave a minimum inhibitory concentration (MIC) of 3.13 µg/mL (≈ 9.22 µM).

Take `C/C=C/C=C/C(=O)NC(C)C(O)CC(N)CC(=O)NCCC(=N)N` (stereo not shown) [IV]: the MIC is 25 µg/mL (≈ 73.7 µM).

Another data set relates to Staphylococcus aureus FDA209P. The data set is described as above. The settings on record: dihydrochloride, medium B--TSA (10% horse serum/TSA), inoculum a loopful of 10^8 CFU/ml. It is filed as cell-based.
From the text: as §1, §2, §3, §4, §5
Turning to `C/C=C\C=C\C(=O)NC(C)C(O)CC(N)CC(=O)NCCC(=N)N` (stereo not shown) [II], the minimal inhibitory concentration (MIC) was 3.13 µg/mL (≈ 9.22 µM).

`C/C=C/C=C/C(=O)NC(C)C(O)CC(N)CC(=O)NCCC(=N)N` (stereo not shown) [IV] displayed a minimal inhibitory concentration (MIC) of 25 µg/mL (≈ 73.7 µM).

The subject of a further data set is Pseudomonas aeruginosa IFO 3080. As to the kind of experiment: Antibacterial spectrum, minimal inhibitory concentration (Table D). The settings on record: IFO3080, dihydrochloride, Bacto-Antibiotic Medium 3 agar, inoculum a loopful of approx. 10^6 CFU/ml. The class given is cell-based. On the procedure: as §1
(§6) Bacto-Antibiotic Medium 3
(§7) Distilled water 1,000 ml
(§8) Inoculum size a loopful of approx.
`C/C=C\C=C\C(=O)NC(C)C(O)CC(N)CC(=O)NCCC(=N)N` (stereo not shown) [II] gave an MIC of 50 µg/mL (≈ 147 µM).

`C/C=C/C=C/C(=O)NC(C)C(O)CC(N)CC(=O)NCCC(=N)N` (stereo not shown) [IV] gave an MIC of 100 µg/mL (≈ 295 µM).

The next data set concerns Staphylococcus aureus FDA 209P. The description is as above. It is filed as cell-based. The note with it: FDA209P, dihydrochloride, Bacto-Antibiotic Medium 3 agar, inoculum a loopful of approx. 10^6 CFU/ml. On the procedure: as §1, §6, §7, §8
In turn, `C/C=C\C=C\C(=O)NC(C)C(O)CC(N)CC(=O)NCCC(=N)N` (stereo not shown) [II] registered an MIC of 12.5 µg/mL (≈ 36.8 µM).

Consider `C/C=C/C=C/C(=O)NC(C)C(O)CC(N)CC(=O)NCCC(=N)N` (stereo not shown) [IV], for which the MIC is 50 µg/mL (≈ 147 µM).

The next data set has as its system Acinetobacter calcoaceticus IFO 13006. Described as above. It is filed as cell-based. The settings on record: IFO13006, dihydrochloride, Bacto-Antibiotic Medium 3 agar, inoculum a loopful of approx. 10^6 CFU/ml. The procedure: as §1, §6, §7, §8
Turning to `C/C=C\C=C\C(=O)NC(C)C(O)CC(N)CC(=O)NCCC(=N)N` (stereo not shown) [II], the MIC was 50 µg/mL (≈ 147 µM).

With `C/C=C/C=C/C(=O)NC(C)C(O)CC(N)CC(=O)NCCC(=N)N` (stereo not shown) [IV], the minimum inhibitory concentration (MIC) was above 100 µg/mL.

The test system of a further data set is Citrobacter freundii IFO 12681. Described as above. It is filed as cell-based. The settings on record: IFO12681, dihydrochloride, Bacto-Antibiotic Medium 3 agar, inoculum a loopful of approx. 10^6 CFU/ml. The procedure: as §1, §6, §7, §8
`C/C=C\C=C\C(=O)NC(C)C(O)CC(N)CC(=O)NCCC(=N)N` (stereo not shown) [II] returned a minimum inhibitory concentration (MIC) of at least 100 µg/mL.

As to `C/C=C/C=C/C(=O)NC(C)C(O)CC(N)CC(=O)NCCC(=N)N` (stereo not shown) [IV], the minimal inhibitory concentration (MIC) was above 100 µg/mL.

For another data set, the system named is Klebsiella pneumoniae IFO 3317. Described as above. The class given is cell-based. The settings on record: IFO3317, dihydrochloride, Bacto-Antibiotic Medium 3 agar, inoculum a loopful of approx. 10^6 CFU/ml. On the procedure:
as §1, §6, §7, §8
Compound `C/C=C\C=C\C(=O)NC(C)C(O)CC(N)CC(=O)NCCC(=N)N` (stereo not shown) [II] returned a minimum inhibitory concentration (MIC) of 100 µg/mL (≈ 295 µM).

For the compound `C/C=C/C=C/C(=O)NC(C)C(O)CC(N)CC(=O)NCCC(=N)N` (stereo not shown) [IV], the minimum inhibitory concentration (MIC) is above 100 µg/mL.

The next data set concerns Escherichia coli NIHJ JC2. The data set is described as above. The class given is cell-based. The note with it: NIHJJC2, dihydrochloride, Bacto-Antibiotic Medium 3 agar, inoculum a loopful of approx. 10^6 CFU/ml. On the procedure:
as §1, §6, §7, §8
Consider `C/C=C\C=C\C(=O)NC(C)C(O)CC(N)CC(=O)NCCC(=N)N` (stereo not shown) [II], for which the MIC is above 100 µg/mL.

`C/C=C/C=C/C(=O)NC(C)C(O)CC(N)CC(=O)NCCC(=N)N` (stereo not shown) [IV] registered an MIC above 100 µg/mL.

Another data set concerns Alcaligenes faecalis IFO 13111. The data set is described as above. The class given is cell-based. The note with it: IFO13111, dihydrochloride, Bacto-Antibiotic Medium 3 agar, inoculum a loopful of approx. 10^6 CFU/ml. On the procedure:
as §1, §6, §7, §8
`C/C=C\C=C\C(=O)NC(C)C(O)CC(N)CC(=O)NCCC(=N)N` (stereo not shown) [II]: inhibition of growth (MIC) required 6.25 µg/mL (≈ 18.4 µM).

Regarding `C/C=C/C=C/C(=O)NC(C)C(O)CC(N)CC(=O)NCCC(=N)N` (stereo not shown) [IV], inhibition of growth (MIC) required 6.25 µg/mL (≈ 18.4 µM).

The test system of the next data set is Proteus morganii IFO 3168. Described as above. The class given is cell-based. The settings on record: Morganella morganii, IFO3168; dihydrochloride; Bacto-Antibiotic Medium 3 agar; inoculum a loopful of approx. 10^6 CFU/ml. The procedure:
as §1, §6, §7, §8
Consider `C/C=C\C=C\C(=O)NC(C)C(O)CC(N)CC(=O)NCCC(=N)N` (stereo not shown) [II], for which the MIC is 100 µg/mL (≈ 295 µM).

Turning to `C/C=C/C=C/C(=O)NC(C)C(O)CC(N)CC(=O)NCCC(=N)N` (stereo not shown) [IV], the minimal inhibitory concentration (MIC) was above 100 µg/mL.

For another data set, the system named is Proteus vulgaris IFO 3988. Described as above. The class given is cell-based. The note with it: IFO3988, dihydrochloride, Bacto-Antibiotic Medium 3 agar, inoculum a loopful of approx. 10^6 CFU/ml. The procedure:
as §1, §6, §7, §8
`C/C=C\C=C\C(=O)NC(C)C(O)CC(N)CC(=O)NCCC(=N)N` (stereo not shown) [II]: inhibition of growth (MIC) required 25 µg/mL (≈ 73.7 µM).

The compound `C/C=C/C=C/C(=O)NC(C)C(O)CC(N)CC(=O)NCCC(=N)N` (stereo not shown) [IV] came in with an MIC of 100 µg/mL (≈ 295 µM).

Test system in a further data set: not listed separately
As to the kind of experiment: Preliminary acute toxicities in mice (Table H). The note with it: mouse, in vivo, sc, dihydrochloride, subcutaneous.
For `C/C=C\C=C\C(=O)NC(C)C(O)CC(N)CC(=O)NCCC(=N)N` (stereo not shown) [II], the LD50 was 400 to 800 mg/kg.

The next data set relates to Pseudomonas aeruginosa P-9. As to the kind of experiment: Therapeutic effect on infectious disease in mice (Table G). It is filed as in vivo. The settings on record: P9, sc, dihydrochloride, bacteria infected intraperitoneally, subcutaneous administration.
Consider `C/C=C\C=C\C(=O)NC(C)C(O)CC(N)CC(=O)NCCC(=N)N` (stereo not shown) [II], for which the 50% effect level (ED50) was put at a dose of 61.4 mg/kg.

The subject of a further data set is Staphylococcus aureus 308A-1. The data set is described as above. It is filed as in vivo. The note with it: 308A1, dihydrochloride, bacteria infected intraperitoneally, oral administration.
On to `C/C=C\C=C\C(=O)NC(C)C(O)CC(N)CC(=O)NCCC(=N)N` (stereo not shown) [II], for which it took a dose of 16.2 mg/kg to reach the 50% effect level (ED50).

The same data set, now with this note: 308A1, sc, dihydrochloride, bacteria infected intraperitoneally, subcutaneous administration.
`C/C=C\C=C\C(=O)NC(C)C(O)CC(N)CC(=O)NCCC(=N)N` (stereo not shown) [II] had an ED50 of 0.351 mg/kg.

With `C/C=C/C=C/C(=O)NC(C)C(O)CC(N)CC(=O)NCCC(=N)N` (stereo not shown) [IV], the ED50 was below 6.25 mg/kg.

A further data set concerns Escherichia coli 0-111. The data set is described as above. It is filed as in vivo. The settings on record: Escherichia coli, 0111, sc, dihydrochloride, bacteria infected intraperitoneally, subcutaneous administration.
In turn, `C/C=C\C=C\C(=O)NC(C)C(O)CC(N)CC(=O)NCCC(=N)N` (stereo not shown) [II] yielded a median effective dose (ED50) of 27.3 mg/kg.
